Test results from PMC9963398, “Discovery of New Quinolone-Based Diarylamides as Potent B-RAF^V600E/C-RAF Kinase Inhibitors Endowed with Promising In Vitro Anticancer Activity” (International Journal of Molecular Sciences, 2023).

Experiments:
Assay in all cases: NCI-60 five-dose SRB assay
Format in all cases: cell-based
SK-MEL-28 = conditions: Homo sapiens; SK-MEL-28, Melanoma, five-dose test
Experimental: (§1) The anticancer screening of target compounds over a full panel of 60 human cancer cell lines was carried out using Sulforhodamine B (SRB) assay at the National Cancer Institute (NCI), Bethesda, Maryland, USA, employing the standard protocol.

HCT-116 = conditions: Homo sapiens; HCT-116, Colon cancer, five-dose test
Experimental: as §1

U251 = conditions: Homo sapiens, U-251; U251, CNS cancer, five-dose test
Experimental: as §1

OVCAR-3 = conditions: Homo sapiens; OVCAR-3, Ovarian cancer, five-dose test
Experimental: as §1

CCRF-CEM = conditions: Homo sapiens, Leukemia, five-dose test
Experimental: as §1

SF-539 = conditions: Homo sapiens; SF-539, CNS cancer, five-dose test
Experimental: as §1

SW-620 = conditions: Homo sapiens; SW-620, Colon cancer, five-dose test
Experimental: as §1

MDA-MB-435 = conditions: Homo sapiens; MDA-MB-435, Melanoma, five-dose test
Experimental: as §1

M14 = conditions: Homo sapiens; M14, Melanoma, five-dose test
Experimental: as §1

TK-10 = conditions: Homo sapiens; TK-10, Renal cancer, five-dose test
Experimental: as §1

SK-MEL-5 = conditions: Homo sapiens; SK-MEL-5, Melanoma, five-dose test
Experimental: as §1

SR = conditions: Homo sapiens, Leukemia, five-dose test
Experimental: as §1

MALME-3M = conditions: Homo sapiens, Melanoma, five-dose test
Experimental: as §1

HL-60(TB) = conditions: Homo sapiens, Leukemia, five-dose test
Experimental: as §1

MCF7 = conditions: Homo sapiens; MCF7, Breast cancer, five-dose test
Experimental: as §1

SK-OV-3 = conditions: Homo sapiens; SK-OV-3, Ovarian cancer, five-dose test
Experimental: as §1

UO-31 = conditions: Homo sapiens; UO-31, Renal cancer, five-dose test
Experimental: as §1

NCI-H522 = conditions: Homo sapiens; NCI-H522, NSCL cancer, five-dose test
Experimental: as §1

SF-295 = conditions: Homo sapiens; SF-295, CNS cancer, five-dose test
Experimental: as §1

EKVX = conditions: Homo sapiens, NSCL cancer, five-dose test
Experimental: as §1

OVCAR-8 = conditions: Homo sapiens; OVCAR-8, Ovarian cancer, five-dose test
Experimental: as §1

IGROV1 = conditions: Homo sapiens, IGROV-1; IGROV1, Ovarian cancer, five-dose test
Experimental: as §1

HCC-2998 = conditions: Homo sapiens; HCC-2998, Colon cancer, five-dose test
Experimental: as §1

HOP-92 = conditions: Homo sapiens; HOP-92, NSCL cancer, five-dose test
Experimental: as §1

SNB-75 = conditions: Homo sapiens; SNB-75, CNS cancer, five-dose test
Experimental: as §1

HS 578T = conditions: Homo sapiens, Breast cancer, five-dose test
Experimental: as §1

CAKI-1 = conditions: Homo sapiens; CAKI-1, Renal cancer, five-dose test
Experimental: as §1

BT-549 = conditions: Homo sapiens; BT-549, Breast cancer, five-dose test
Experimental: as §1

ACHN = conditions: Homo sapiens, Renal cancer, five-dose test
Experimental: as §1

KM12 = conditions: Homo sapiens; KM12, Colon cancer, five-dose test
Experimental: as §1

OVCAR-5 = conditions: Homo sapiens; OVCAR-5, Ovarian cancer, five-dose test
Experimental: as §1

OVCAR-4 = conditions: Homo sapiens; OVCAR-4, Ovarian cancer, five-dose test
Experimental: as §1

COLO 205 = conditions: Homo sapiens; COLO 205, Colon cancer, five-dose test
Experimental: as §1

SN12C = conditions: Homo sapiens, Renal cancer, five-dose test
Experimental: as §1

786-0 = conditions: Homo sapiens; 786-0, Renal cancer, five-dose test
Experimental: as §1

NCI-H460 = conditions: Homo sapiens; NCI-H460, NSCL cancer, five-dose test
Experimental: as §1

HCT-15 = conditions: Homo sapiens; HCT-15, Colon cancer, five-dose test
Experimental: as §1

SF-268 = conditions: Homo sapiens; SF-268, CNS cancer, five-dose test
Experimental: as §1

T-47D = conditions: Homo sapiens, T47D, Breast cancer, five-dose test
Experimental: as §1

LOX IMVI = conditions: Homo sapiens, Melanoma, five-dose test
Experimental: as §1

UACC-257 = conditions: Homo sapiens; UACC-257, Melanoma, five-dose test
Experimental: as §1

NCI-H322M = conditions: Homo sapiens, NSCL cancer, five-dose test
Experimental: as §1

DU-145 = conditions: Homo sapiens; DU-145, Prostate cancer, five-dose test
Experimental: as §1

CN1CCN(Cc2ccc(C(=O)Nc3cccc(Nc4ccc5cc(O)ccc5n4)c3)cc2C(F)(F)F)CC1 [Compound 18a, N-(3-((6-hydroxyquinolin-2-yl)amino)phenyl)-4-((4-methylpiperazin-1-yl)methyl)-3-(trifluoromethyl)benzamide]
GI50 (SK-MEL-28): 1.79 µM
GI50 (HCT-116): 3.93 µM
GI50 (U251): 2.17 µM
GI50 (OVCAR-3): 11.2 µM
GI50 (CCRF-CEM): 3.48 µM
GI50 (SF-539): 1.98 µM
GI50 (SW-620): 2.3 µM
GI50 (MDA-MB-435): 8.53 µM
GI50 (M14): 9.06 µM
GI50 (TK-10): 21.4 µM
GI50 (SK-MEL-5): 2.35 µM
GI50 (SR): 2.68 µM
GI50 (MALME-3M): 1.59 µM
GI50 (HL-60(TB)): 2.58 µM
GI50 (MCF7): 2.46 µM
GI50 (SK-OV-3): 16.5 µM
GI50 (UO-31): 13.4 µM
GI50 (NCI-H522): 4.82 µM
GI50 (SF-295): 2.33 µM
GI50 (EKVX): 14.2 µM
GI50 (OVCAR-8): 13.2 µM
GI50 (IGROV1): 16.6 µM
GI50 (HCC-2998): 2.39 µM
GI50 (HOP-92): 3.39 µM
GI50 (SNB-75): 0.656 µM
GI50 (HS 578T): 4.17 µM
GI50 (CAKI-1): 11.9 µM
GI50 (BT-549): 12.2 µM
GI50 (ACHN): 7.59 µM
GI50 (KM12): 3.16 µM
GI50 (OVCAR-5): 14.2 µM
GI50 (OVCAR-4): 11.2 µM
GI50 (COLO 205): 10.2 µM
GI50 (SN12C): 14.1 µM
GI50 (786-0): 3.13 µM
GI50 (NCI-H460): 3.84 µM
GI50 (HCT-15): 2.09 µM
GI50 (SF-268): 10.4 µM
GI50 (T-47D): 14.6 µM
GI50 (LOX IMVI): 1.73 µM
GI50 (UACC-257): 7.35 µM
GI50 (NCI-H322M): 11 µM
GI50 (DU-145): 10.5 µM

CN1CCN(Cc2ccc(C(=O)Nc3cccc(Nc4ccc5c(O)cccc5n4)c3)cc2C(F)(F)F)CC1 [Compound 17a, N-(3-((5-hydroxyquinolin-2-yl)amino)phenyl)-4-((4-methylpiperazin-1-yl)methyl)-3-(trifluoromethyl)benzamide]
GI50 (SK-MEL-28): 1.77 µM
GI50 (HCT-116): 2.7 µM
GI50 (U251): 2.38 µM
GI50 (OVCAR-3): 3.1 µM
GI50 (CCRF-CEM): 2.91 µM
GI50 (SF-539): 1.67 µM
GI50 (SW-620): 2.24 µM
GI50 (MDA-MB-435): 1.78 µM
GI50 (M14): 2.21 µM
GI50 (TK-10): 3.36 µM
GI50 (SK-MEL-5): 1.68 µM
GI50 (SR): 4.39 µM
GI50 (MALME-3M): 1.67 µM
GI50 (HL-60(TB)): 2.47 µM
GI50 (MCF7): 1.74 µM
GI50 (SK-OV-3): 14.4 µM
GI50 (UO-31): 1.99 µM
GI50 (NCI-H522): 1.93 µM
GI50 (SF-295): 1.65 µM
GI50 (EKVX): 3.75 µM
GI50 (OVCAR-8): 3.56 µM
GI50 (IGROV1): 4.7 µM
GI50 (HCC-2998): 1.89 µM
GI50 (HOP-92): 1.32 µM
GI50 (SNB-75): 1.85 µM
GI50 (HS 578T): 2.96 µM
GI50 (CAKI-1): 2.13 µM
GI50 (BT-549): 15.6 µM
GI50 (ACHN): 2.07 µM
GI50 (KM12): 2.3 µM
GI50 (OVCAR-5): 3.24 µM
GI50 (OVCAR-4): 7.39 µM
GI50 (COLO 205): 1.99 µM
GI50 (SN12C): 2.34 µM
GI50 (786-0): 2.11 µM
GI50 (NCI-H460): 2.19 µM
GI50 (HCT-15): 1.82 µM
GI50 (SF-268): 3.81 µM
GI50 (T-47D): 10.7 µM
GI50 (LOX IMVI): 1.65 µM
GI50 (UACC-257): 1.92 µM
GI50 (NCI-H322M): 3.23 µM
GI50 (DU-145): 4.68 µM

COc1cccc2nc(Nc3cccc(NC(=O)c4ccc(CN5CCN(C)CC5)c(C(F)(F)F)c4)c3)ccc12 [Compound 14a, 4-((4-methylpiperazin-1-yl)methyl)-N-(3-((5-methoxyquinolin-2-yl)amino)phenyl)-3-(trifluoromethyl)benzamide]
GI50 (SK-MEL-28): 1.71 µM
GI50 (HCT-116): 1.82 µM
GI50 (U251): 1.92 µM
GI50 (OVCAR-3): 2.15 µM
GI50 (CCRF-CEM): 2.1 µM
GI50 (SF-539): 1.64 µM
GI50 (SW-620): 1.73 µM
GI50 (MDA-MB-435): 1.68 µM
GI50 (M14): 1.76 µM
GI50 (TK-10): 2.15 µM
GI50 (SK-MEL-5): 1.62 µM
GI50 (SR): 1.85 µM
GI50 (MALME-3M): 1.65 µM
GI50 (HL-60(TB)): 1.22 µM
GI50 (MCF7): 1.57 µM
GI50 (SK-OV-3): 9.22 µM
GI50 (UO-31): 1.64 µM
GI50 (NCI-H522): 1.79 µM
GI50 (SF-295): 1.77 µM
GI50 (EKVX): 2.1 µM
GI50 (OVCAR-8): 3.09 µM
GI50 (IGROV1): 2.25 µM
GI50 (HCC-2998): 1.99 µM
GI50 (HOP-92): 1.5 µM
GI50 (SNB-75): 1.6 µM
GI50 (HS 578T): 1.84 µM
GI50 (CAKI-1): 1.81 µM
GI50 (BT-549): 7.01 µM
GI50 (ACHN): 2.05 µM
GI50 (KM12): 2.13 µM
GI50 (OVCAR-5): 1.84 µM
GI50 (OVCAR-4): 2.21 µM
GI50 (COLO 205): 1.79 µM
GI50 (SN12C): 1.71 µM
GI50 (786-0): 1.76 µM
GI50 (NCI-H460): 1.71 µM
GI50 (HCT-15): 1.78 µM
GI50 (SF-268): 1.69 µM
GI50 (T-47D): 2.28 µM
GI50 (LOX IMVI): 1.74 µM
GI50 (UACC-257): 1.98 µM
GI50 (NCI-H322M): 2.29 µM
GI50 (DU-145): 1.98 µM

COc1cccc2nc(Nc3ccc(F)c(NC(=O)c4ccc(CN5CCN(C)CC5)c(C(F)(F)F)c4)c3)ccc12 [Compound 15a, N-(2-fluoro-5-((5-methoxyquinolin-2-yl)amino)phenyl)-4-((4-methylpiperazin-1-yl)methyl)-3-(trifluoromethyl)benzamide]
GI50 (SK-MEL-28): 15.3 µM
GI50 (HCT-116): 8.75 µM
GI50 (U251): 13.4 µM
GI50 (OVCAR-3): 14.4 µM
GI50 (CCRF-CEM): 9.71 µM
GI50 (SF-539): 12.4 µM
GI50 (SW-620): 16.9 µM
GI50 (MDA-MB-435): 15.1 µM
GI50 (M14): 13.1 µM
GI50 (TK-10): 16.4 µM
GI50 (SK-MEL-5): 15.5 µM
GI50 (SR): 9.83 µM
GI50 (MALME-3M): 11.7 µM
GI50 (HL-60(TB)): 6.52 µM
GI50 (MCF7): 12.3 µM
GI50 (SK-OV-3): 15.7 µM
GI50 (UO-31): 12.6 µM
GI50 (NCI-H522): 16 µM
GI50 (SF-295): 17.1 µM
GI50 (EKVX): 14.7 µM
GI50 (OVCAR-8): 15.8 µM
GI50 (IGROV1): 14.5 µM
GI50 (HCC-2998): 18.8 µM
GI50 (HOP-92): 6.64 µM
GI50 (SNB-75): 9.09 µM
GI50 (HS 578T): 14.1 µM
GI50 (CAKI-1): 11.5 µM
GI50 (BT-549): 10.5 µM
GI50 (ACHN): 16.5 µM
GI50 (KM12): 15.4 µM
GI50 (OVCAR-5): 16.1 µM
GI50 (OVCAR-4): 13.9 µM
GI50 (COLO 205): 17.2 µM
GI50 (SN12C): 13.4 µM
GI50 (786-0): 12.5 µM
GI50 (NCI-H460): 15.9 µM
GI50 (HCT-15): 13.4 µM
GI50 (SF-268): 11.1 µM
GI50 (T-47D): 14.8 µM
GI50 (LOX IMVI): 13.8 µM
GI50 (UACC-257): 16.3 µM
GI50 (NCI-H322M): 15.2 µM
GI50 (DU-145): 12.9 µM
